Experimental data from ChEMBL document CHEMBL1201862, “PubChem BioAssay data set” (2004).
Active and inactive are the calls of the source.

Experiments:
[1] = target: Genome polyprotein (Hepatitis C virus, UniProt Q2Q167); experiment: HCV core protein dimerization inhibitors, dose response, biochemical, TR-FRET (AID 2159); design: species or system Hepacivirus hominis;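 note: blocks dimerization of HCV core protein measured by TR-FRET between tagged core106 pairs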
[2] = target: Peroxisome proliferator-activated receptor gamma/Nuclear receptor coactivator 1 (Homo sapiens, UniProt P37231); experiment: (§1) TR-FRET dose response biochemical High Throughput Screening assay for agonists of the steroid receptor coactivator 1 (SRC-1) recruitment by the peroxisome proliferator-activated receptor gamma (PPAR gamma): non-selective agonists. [Related pubchem assays (depositor defined):AID1300, AID1808, AID504735, AID631]; format: protein assay
[3] = target: Peroxisome proliferator-activated receptor gamma/Nuclear receptor coactivator 3 (Homo sapiens, UniProt P37231); experiment: as §1, with “3 (SRC-3)” for “1 (SRC-1)”, “assays: 1301 (Confirmation screen.), 1048 (Primary screen.)]” for “assays (depositor defined):AID1300, AID1808, AID504735, AID631]”; format: functional
[4] = target: Peroxisome proliferator-activated receptor gamma/Nuclear receptor coactivator 2 (Homo sapiens, UniProt P37231); experiment: TR-FRET dose response biochemical High Throughput Screening assay for agonists of the steroid receptor coactivator 2 (SRC-2) recruitment by the peroxisome proliferator-activated receptor gamma (PPAR gamma): non-selective agonists. [Related pubchem assays: 1297, 1032 ]; format: functional
[5] = target: Photoreceptor-specific nuclear receptor (Homo sapiens, UniProt Q9Y5X4); format: functional;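 note: potency for compounds that break the NR2E3 corepressor complex and count as activators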
Sequence of Photoreceptor-specific nuclear receptor (Q9Y5X4 whole entry): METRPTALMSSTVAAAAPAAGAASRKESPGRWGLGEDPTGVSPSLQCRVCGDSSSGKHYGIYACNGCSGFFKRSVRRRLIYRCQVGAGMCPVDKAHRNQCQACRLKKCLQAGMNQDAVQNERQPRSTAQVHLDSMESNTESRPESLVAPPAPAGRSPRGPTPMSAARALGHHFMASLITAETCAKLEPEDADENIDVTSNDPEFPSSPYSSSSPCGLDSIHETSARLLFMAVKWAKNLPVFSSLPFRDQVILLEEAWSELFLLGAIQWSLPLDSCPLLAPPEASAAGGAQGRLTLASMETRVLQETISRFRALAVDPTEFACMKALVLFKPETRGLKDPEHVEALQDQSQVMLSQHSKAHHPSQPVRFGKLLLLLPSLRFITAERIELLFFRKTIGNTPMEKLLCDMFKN

[6] = cells
[7] = target: Peroxisome proliferator-activated receptor gamma/Nuclear receptor corepressor 2 (Homo sapiens, UniProt P37231+Q9Y618); format: functional
Sequence of Peroxisome proliferator-activated receptor gamma/Nuclear receptor corepressor 2 (P37231 whole entry): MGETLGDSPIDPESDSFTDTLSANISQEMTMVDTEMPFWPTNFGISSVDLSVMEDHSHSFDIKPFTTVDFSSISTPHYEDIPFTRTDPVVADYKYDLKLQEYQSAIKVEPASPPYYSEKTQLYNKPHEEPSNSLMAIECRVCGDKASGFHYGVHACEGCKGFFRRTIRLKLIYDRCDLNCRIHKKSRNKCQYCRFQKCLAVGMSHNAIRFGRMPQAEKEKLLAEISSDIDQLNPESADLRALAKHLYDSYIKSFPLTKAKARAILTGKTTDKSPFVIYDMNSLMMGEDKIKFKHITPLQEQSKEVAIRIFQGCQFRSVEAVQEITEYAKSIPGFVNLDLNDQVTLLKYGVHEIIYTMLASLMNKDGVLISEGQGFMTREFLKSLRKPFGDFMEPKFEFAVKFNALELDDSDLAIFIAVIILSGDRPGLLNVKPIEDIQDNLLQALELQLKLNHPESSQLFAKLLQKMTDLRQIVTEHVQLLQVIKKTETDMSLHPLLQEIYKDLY
Sequence of Peroxisome proliferator-activated receptor gamma/Nuclear receptor corepressor 2 (Q9Y618 whole entry): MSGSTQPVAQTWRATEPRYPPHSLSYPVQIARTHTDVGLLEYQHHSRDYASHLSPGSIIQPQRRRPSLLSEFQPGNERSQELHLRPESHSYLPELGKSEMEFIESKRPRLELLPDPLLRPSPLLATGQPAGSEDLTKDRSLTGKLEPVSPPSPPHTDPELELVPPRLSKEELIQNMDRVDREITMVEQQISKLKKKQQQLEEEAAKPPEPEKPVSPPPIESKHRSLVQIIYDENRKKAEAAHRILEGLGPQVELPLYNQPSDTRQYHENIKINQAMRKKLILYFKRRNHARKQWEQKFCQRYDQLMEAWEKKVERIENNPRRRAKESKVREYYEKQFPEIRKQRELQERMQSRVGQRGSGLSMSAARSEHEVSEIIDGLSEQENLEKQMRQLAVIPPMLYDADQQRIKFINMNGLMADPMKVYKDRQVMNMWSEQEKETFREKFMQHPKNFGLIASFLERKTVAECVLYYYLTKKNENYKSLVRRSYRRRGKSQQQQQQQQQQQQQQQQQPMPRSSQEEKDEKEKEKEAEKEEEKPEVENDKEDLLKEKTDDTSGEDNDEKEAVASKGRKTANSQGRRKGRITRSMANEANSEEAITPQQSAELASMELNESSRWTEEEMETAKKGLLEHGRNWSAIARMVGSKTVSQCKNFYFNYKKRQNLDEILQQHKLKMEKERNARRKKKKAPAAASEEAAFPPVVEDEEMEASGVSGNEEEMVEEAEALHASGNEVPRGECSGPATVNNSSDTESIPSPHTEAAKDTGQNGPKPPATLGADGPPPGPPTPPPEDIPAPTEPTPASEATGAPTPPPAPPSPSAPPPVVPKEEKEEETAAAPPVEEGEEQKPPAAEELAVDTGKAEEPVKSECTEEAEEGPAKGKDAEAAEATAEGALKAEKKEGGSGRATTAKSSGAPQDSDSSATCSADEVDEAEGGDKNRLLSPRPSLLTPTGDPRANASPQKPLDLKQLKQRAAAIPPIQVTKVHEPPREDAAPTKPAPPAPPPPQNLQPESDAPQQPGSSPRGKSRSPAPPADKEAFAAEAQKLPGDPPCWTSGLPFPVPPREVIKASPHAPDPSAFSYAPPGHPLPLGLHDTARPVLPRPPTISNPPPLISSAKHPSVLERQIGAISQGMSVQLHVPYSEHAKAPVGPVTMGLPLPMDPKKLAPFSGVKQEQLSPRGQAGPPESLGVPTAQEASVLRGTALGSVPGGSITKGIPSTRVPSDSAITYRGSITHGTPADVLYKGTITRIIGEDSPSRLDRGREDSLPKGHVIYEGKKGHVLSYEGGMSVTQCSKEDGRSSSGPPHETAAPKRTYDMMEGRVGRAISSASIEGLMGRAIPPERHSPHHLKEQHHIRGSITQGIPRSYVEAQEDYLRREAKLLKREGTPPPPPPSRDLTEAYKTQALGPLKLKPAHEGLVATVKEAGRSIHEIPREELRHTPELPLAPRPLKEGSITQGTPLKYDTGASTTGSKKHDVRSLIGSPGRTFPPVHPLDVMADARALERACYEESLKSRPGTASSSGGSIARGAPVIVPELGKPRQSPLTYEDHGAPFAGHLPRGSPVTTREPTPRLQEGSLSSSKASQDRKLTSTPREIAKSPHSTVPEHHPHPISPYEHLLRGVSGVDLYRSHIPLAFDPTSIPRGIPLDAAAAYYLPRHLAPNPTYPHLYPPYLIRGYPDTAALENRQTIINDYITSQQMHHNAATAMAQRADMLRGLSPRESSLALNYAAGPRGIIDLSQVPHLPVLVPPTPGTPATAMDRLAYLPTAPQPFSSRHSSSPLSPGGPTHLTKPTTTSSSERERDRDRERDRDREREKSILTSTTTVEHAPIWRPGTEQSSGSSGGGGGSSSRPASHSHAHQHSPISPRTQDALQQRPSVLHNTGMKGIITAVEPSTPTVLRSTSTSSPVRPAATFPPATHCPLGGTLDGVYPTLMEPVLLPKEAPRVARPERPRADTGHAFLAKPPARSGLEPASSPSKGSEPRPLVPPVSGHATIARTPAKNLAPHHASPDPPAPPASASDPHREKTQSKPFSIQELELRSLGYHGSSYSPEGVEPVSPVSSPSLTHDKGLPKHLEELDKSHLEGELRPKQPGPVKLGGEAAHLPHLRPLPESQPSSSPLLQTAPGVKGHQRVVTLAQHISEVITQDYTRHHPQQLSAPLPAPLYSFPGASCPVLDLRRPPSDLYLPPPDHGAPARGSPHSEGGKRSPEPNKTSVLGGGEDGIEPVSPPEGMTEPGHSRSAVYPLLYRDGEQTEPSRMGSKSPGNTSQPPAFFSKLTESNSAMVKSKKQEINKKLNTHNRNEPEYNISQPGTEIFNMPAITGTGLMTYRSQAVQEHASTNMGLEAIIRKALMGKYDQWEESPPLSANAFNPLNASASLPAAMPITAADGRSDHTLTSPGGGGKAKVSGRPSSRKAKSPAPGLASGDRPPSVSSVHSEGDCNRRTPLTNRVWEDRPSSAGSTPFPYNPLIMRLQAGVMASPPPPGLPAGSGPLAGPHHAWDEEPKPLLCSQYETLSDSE

[8] = target: Major prion protein (Homo sapiens, UniProt P04156); format: functional, cell-based
[9] = target: Ras and Rab interactor 1/Tyrosine-protein kinase ABL1 (Homo sapiens, UniProt P00519+Q13671); format: functional;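 note: biochemical TR-FRET dose-response test measuring inhibition of binding between Rin1 and Abl proteins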
[10] = target: Aspartyl aminopeptidase (Plasmodium falciparum 3D7, UniProt Q8I2J3)
Sequence of Aspartyl aminopeptidase (Q8I2J3 whole entry): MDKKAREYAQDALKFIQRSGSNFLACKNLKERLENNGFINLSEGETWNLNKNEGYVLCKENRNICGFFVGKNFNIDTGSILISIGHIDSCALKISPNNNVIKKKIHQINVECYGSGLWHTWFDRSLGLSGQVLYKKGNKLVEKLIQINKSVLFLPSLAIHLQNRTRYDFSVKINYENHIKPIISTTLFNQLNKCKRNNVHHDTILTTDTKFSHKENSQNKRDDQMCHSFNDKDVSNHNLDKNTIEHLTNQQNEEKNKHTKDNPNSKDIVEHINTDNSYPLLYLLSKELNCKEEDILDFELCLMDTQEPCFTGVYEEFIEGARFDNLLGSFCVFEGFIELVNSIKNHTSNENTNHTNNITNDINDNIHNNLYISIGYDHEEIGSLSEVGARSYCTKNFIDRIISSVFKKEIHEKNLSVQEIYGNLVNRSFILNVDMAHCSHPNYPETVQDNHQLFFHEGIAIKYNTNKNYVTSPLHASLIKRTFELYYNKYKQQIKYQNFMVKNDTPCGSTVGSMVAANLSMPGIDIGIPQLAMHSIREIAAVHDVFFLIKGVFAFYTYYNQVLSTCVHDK

[11] = target: Procathepsin L (Homo sapiens, UniProt P07711)
Sequence of Procathepsin L (P07711 whole entry): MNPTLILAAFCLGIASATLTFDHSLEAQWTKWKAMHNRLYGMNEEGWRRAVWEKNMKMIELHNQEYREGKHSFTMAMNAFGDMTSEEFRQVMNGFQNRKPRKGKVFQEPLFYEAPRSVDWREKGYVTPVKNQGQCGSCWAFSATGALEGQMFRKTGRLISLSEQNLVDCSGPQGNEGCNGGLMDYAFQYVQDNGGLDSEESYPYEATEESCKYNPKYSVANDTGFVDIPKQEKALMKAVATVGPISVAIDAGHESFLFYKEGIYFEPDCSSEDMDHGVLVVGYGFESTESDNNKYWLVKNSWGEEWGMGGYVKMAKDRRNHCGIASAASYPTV

[12] = target: Acyl-homoserine lactone acylase PvdQ (Pseudomonas aeruginosa (strain LESB58), UniProt Q9I194); experiment: P. aeruginosa PvdQ acylase inhibitors, dose response, biochemical, fluorescence, plate reader and imaging, cherry-picks (AID 493231)
[13] = target: T1, Heat shock factor protein 1 (Mus musculus, UniProt P38532); experiment: HSF1 potentiators in luciferase reporter cells, confirmation, cell-based, NIH3T3, luminescence, dose retest (AID 435004); format: functional;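 note: stress induced by proteasome inhibitor MG132 added 30 min after compound; luciferase reporter driven by HSF1 response element in NIH3T3 cells; actives raise luminescence as potentiators of the MG132 stress response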
T1 sequence (P38532 whole entry): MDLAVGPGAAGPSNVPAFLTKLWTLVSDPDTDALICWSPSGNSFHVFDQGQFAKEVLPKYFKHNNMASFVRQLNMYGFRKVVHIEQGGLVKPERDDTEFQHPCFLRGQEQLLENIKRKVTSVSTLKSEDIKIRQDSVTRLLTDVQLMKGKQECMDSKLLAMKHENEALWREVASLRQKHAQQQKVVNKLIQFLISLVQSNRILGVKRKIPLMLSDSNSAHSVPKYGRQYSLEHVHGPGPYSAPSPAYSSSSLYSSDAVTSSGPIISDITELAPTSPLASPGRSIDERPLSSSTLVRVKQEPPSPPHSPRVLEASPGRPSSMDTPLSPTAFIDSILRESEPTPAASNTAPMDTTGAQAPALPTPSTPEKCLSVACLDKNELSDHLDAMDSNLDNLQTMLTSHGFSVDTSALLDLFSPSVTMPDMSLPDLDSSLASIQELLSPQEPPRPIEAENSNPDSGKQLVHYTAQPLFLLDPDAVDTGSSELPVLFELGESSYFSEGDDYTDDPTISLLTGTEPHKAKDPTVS

[14] = target: T2, Alkaline phosphatase, tissue-nonspecific isozyme (Homo sapiens, UniProt P05186)
T2 sequence (P05186 whole entry): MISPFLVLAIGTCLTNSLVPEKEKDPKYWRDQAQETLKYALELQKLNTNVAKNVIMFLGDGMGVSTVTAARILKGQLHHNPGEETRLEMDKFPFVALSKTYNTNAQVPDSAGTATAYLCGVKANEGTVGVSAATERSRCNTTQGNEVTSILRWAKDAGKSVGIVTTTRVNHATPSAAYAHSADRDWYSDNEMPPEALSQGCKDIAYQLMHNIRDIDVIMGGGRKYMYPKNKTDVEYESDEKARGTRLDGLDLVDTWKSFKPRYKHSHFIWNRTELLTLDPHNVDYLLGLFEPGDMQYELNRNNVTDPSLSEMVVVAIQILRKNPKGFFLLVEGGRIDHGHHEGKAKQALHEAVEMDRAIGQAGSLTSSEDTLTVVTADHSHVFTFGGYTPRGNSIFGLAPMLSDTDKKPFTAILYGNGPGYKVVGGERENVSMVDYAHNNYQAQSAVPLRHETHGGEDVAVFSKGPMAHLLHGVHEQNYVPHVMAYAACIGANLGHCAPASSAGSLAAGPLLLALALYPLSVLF

[15] = target: Cytochrome P450 2D6 (Homo sapiens, UniProt P10635);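 note: CYP2D6 member of a cytochrome P450 panel assay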
Sequence of Cytochrome P450 2D6 (P10635 whole entry): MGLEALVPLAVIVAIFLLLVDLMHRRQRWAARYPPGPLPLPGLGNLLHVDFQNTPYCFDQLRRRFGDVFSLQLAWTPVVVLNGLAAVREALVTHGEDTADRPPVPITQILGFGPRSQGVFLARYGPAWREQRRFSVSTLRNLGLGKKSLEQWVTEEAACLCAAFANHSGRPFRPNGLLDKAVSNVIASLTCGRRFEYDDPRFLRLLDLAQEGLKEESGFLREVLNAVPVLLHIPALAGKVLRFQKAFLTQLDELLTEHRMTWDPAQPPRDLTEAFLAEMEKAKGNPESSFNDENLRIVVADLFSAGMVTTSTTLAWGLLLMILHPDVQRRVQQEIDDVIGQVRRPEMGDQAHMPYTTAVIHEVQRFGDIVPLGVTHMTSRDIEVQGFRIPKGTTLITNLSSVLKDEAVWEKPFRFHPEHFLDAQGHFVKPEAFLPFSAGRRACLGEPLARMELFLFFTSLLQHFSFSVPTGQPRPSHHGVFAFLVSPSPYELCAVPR

[16] = M. tuberculosis H37Rv growth inhibitors, H37Rv strain (AID 1626); format: functional
[17] = test system: Streptococcus; experiment: Group A Streptococcus viability loss, dose response, counter-screen for streptokinase expression inhibitor project, luminescence, BacTiterGlo (AID 1915); format: functional, organism-based;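 note: potency for reduction of bacterial viability or growth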
[18] = target: T3, Streptokinase A (Streptococcus pyogenes serotype M1, UniProt P10520); experiment: S. pyogenes streptokinase expression inhibitors, potency, dose response, plasminogen activation absorbance, OD405 (AID 1914); format: functional, Streptococcus pyogenes M1 GAS;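 note: secreted streptokinase activity via plasminogen activation per viability signal from cell pellet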
T3 sequence (P10520 whole entry): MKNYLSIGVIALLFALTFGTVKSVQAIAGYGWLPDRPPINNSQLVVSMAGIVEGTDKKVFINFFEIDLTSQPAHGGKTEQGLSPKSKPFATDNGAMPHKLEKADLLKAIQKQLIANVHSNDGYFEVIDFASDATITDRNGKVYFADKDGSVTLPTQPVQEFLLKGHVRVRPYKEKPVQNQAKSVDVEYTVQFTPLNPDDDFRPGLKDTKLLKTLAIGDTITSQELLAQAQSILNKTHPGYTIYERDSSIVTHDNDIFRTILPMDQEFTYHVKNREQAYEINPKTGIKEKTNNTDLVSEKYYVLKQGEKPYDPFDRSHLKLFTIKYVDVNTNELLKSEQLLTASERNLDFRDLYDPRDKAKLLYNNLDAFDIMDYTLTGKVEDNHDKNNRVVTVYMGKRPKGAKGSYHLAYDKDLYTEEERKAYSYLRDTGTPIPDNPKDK

[19] = target: T4, Ubiquitin-conjugating enzyme E2 N (Homo sapiens, UniProt P61088); format: functional;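 note: Dose-response confirmation in a TR-FRET assay detecting UBC13-driven polyubiquitin chain formation, inhibition measured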
T4 sequence (P61088 whole entry): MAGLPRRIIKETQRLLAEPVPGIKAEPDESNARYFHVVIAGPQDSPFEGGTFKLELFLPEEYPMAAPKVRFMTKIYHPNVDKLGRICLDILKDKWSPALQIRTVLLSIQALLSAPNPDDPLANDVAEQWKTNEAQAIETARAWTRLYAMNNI

[20] = test system: Streptococcus sp. 'group A'; experiment: growth inhibition of control SK(-) GAS strain, dose response, counter-screen for streptokinase expression inhibitor project, luminescence, kanamycin, BacTiterGlo, confirmation (AID 1900); format: functional, organism-based
[21] = C. albicans growth with fluconazole, confirmation, fluorescence, retest (AID 2467); format: functional, cell-based
[22] = target: T5, Neuropeptide Y receptor type 1 (Homo sapiens, UniProt P25929); experiment: Fluorescence-based counterscreen for agonists of NPY-Y2: cell-based high-throughput dose response assay for agonists of NPY-Y1.; format: functional
T5 sequence (P25929 whole entry): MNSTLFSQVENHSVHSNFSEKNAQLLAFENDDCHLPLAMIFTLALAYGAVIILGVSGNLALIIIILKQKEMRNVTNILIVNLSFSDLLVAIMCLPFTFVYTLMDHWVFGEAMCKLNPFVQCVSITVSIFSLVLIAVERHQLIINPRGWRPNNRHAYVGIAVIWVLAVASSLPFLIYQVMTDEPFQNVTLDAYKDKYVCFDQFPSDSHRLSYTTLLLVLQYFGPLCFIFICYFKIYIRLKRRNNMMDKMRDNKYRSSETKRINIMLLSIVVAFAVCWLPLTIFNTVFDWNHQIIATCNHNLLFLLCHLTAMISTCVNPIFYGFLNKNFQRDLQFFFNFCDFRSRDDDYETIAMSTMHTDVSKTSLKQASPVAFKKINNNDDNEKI

[23] = target: T6, Neuropeptide Y receptor type 2 (Homo sapiens, UniProt P49146); experiment: Fluorescence-based cell-based high-throughput dose response assay for agonists of NPY-Y2. [Related pubchem assays: 1703 (Screening assay (CNGC inhibitors).), 1359 (Screening assay (NPY-Y2 potentiators or agonists).), 1304 (Screening assay (NPY-Y1 potentiators or agonists).), 1710 (Screening assay (NPY-Y2 agonists).), 1791 (Summary AID.)]; format: functional
T6 sequence (P49146 whole entry): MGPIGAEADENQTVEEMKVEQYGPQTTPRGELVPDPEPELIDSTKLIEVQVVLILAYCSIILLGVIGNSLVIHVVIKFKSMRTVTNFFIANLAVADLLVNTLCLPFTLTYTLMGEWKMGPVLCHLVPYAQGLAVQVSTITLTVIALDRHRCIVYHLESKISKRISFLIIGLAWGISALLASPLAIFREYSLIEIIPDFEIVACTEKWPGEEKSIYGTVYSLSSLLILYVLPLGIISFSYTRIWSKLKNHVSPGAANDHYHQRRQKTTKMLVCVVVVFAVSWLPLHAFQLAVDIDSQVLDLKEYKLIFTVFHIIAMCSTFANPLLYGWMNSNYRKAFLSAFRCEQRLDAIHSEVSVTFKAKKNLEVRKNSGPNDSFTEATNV

[24] = NIH-3T3 fibroblast cytotoxicity, dose response, cytotoxicity control, cell-based, fluorescence, Alamar Blue, secondary assay (AID 2327); format: functional;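 note: NIH-3T3 mouse fibroblasts cultured with fluconazole at 8 µg/mL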
[25] = test system: HEK293; experiment: Fluorescence-based counterscreen for potentiators or agonists of NPY-Y2: cell-based high-throughput dose response assay to identify inhibitors of cyclic nucleotide gated ion channel (CNGC) activity. In this assay, the parental HEK293 cell line transfected with a cyclic-nucleotide gated ion channel (CNGC)-based cAMP sensor is used to measure inhibition of isoproterenol-induced CNGC activity by test compound.; format: functional; conditions: Homo sapiens;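 note: stimulus is 1 µM isoproterenol at EC100 plus PDE inhibitor Ro 20-1724 at 25 µM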
[26] = target: T7, Calpain-2 catalytic subunit (Sus scrofa, UniProt P43367); experiment: pig calpain II inhibitor potency, dose response, biochemical, fluorogenic peptide substrate (AID 1420); format: functional
T7 sequence (P43367 whole entry): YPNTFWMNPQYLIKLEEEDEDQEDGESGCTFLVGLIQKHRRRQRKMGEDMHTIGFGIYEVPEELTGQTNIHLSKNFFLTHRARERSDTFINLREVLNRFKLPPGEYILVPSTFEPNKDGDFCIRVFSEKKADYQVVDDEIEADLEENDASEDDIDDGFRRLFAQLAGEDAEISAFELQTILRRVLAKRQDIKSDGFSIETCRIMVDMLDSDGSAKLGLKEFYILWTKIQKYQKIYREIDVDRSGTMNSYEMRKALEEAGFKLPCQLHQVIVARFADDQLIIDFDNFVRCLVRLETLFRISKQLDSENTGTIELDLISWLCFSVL

Sequence of Genome polyprotein (Q2Q167 whole entry): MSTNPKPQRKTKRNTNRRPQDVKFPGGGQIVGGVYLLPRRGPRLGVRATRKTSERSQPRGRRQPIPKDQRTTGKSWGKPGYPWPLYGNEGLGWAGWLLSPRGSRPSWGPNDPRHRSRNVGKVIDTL

In the case of `Cc1cc(Br)c2nc3c(c(C(=O)O)c2c1)CCCCC3`, the IC50 [1] is reported as > 49.8 µM (not active), the EC50 [2] is reported as > 79.4 µM (inactive) and the EC50 [3] is reported as > 79.4 µM (not active). The EC50 [4] was 12.8 µM (not active), the IC50 [5] was 1.38 µM (active) and the IC50 [6] was > 138 µM (inactive). For the same compound, the IC50 [7] was 0.604 µM (active) and the IC50 [8] was 0.141 µM (active).

In the case of `Cc1cccc(C)c1NC(=O)CCCCCC1NC(=O)NC1C` (configuration not stated), the IC50 [9] is reported as 0.106 µM (active), the IC50 [5] is reported as 3.85 µM (active) and the IC50 [7] is reported as > 39.8 µM (not active).

For `CCN(CC)S(=O)(=O)c1ccc(C(=O)Nn2cnnc2)cc1`, the IC50 [10] was 1.07 µM (active) and the IC50 [11] was > 59.6 µM (not active).

In the case of `Cc1cccc(C(C#N)c2ccc(Cl)nn2)c1` (configuration not stated), the AC50 [12] is reported as 2.01 µM (active) and the EC50 [13] is reported as > 260 µM (inactive).

In the case of `CC(=O)OCCCN1c2ccccc2Nc2nnc(-c3ccccc3)cc21`, the EC50 [14] is reported as 71.8 µM (not active), the AC50 [15] is reported as 15.8 µM (inconclusive) and the IC50 [16] is reported as > 100 µM (active).

For `Nc1nncn1C(=O)CCCOc1ccc(Cl)cc1Cl`, the IC50 [10] was 2.6 µM (active) and the IC50 [11] was > 59.6 µM (not active).

For `COc1ccc(Cl)cc1NC(=O)CN1CCC(n2nnc3cc(C)ccc32)CC1`, the EC50 [14] was 70.6 µM (not active), the EC50 [17] was 93.4 µM (active) and the EC50 [18] was 26.4 µM (active). The IC50 [19] was > 20 µM (inactive) and the EC50 [20] was 12.2 µM (active).

In the case of `O=C(COc1ccc(Cl)cc1)Nc1ncc([N+](=O)[O-])s1`, the EC50 [21] is reported as 0.166 µM (active), the EC50 [22] is reported as 33.8 µM (not active) and the EC50 [23] is reported as > 35.4 µM (not active). For the same compound, the EC50 [24] was 36 µM (active), the EC50 [25] was > 35.4 µM (not active) and the EC50 [13] was 0.382 µM (active). For the same compound, the IC50 [26] was 24.9 µM (not active).
